Results from patent US10111901B2, “Beta-glucan in combination with anti-cancer agents affecting the tumor microenvironment” (Biothera, Inc., priority 2014, dated 2018).

What was measured:
M2 macrophages = assay: Mac-CD4 T co-culture surface marker modulation on macrophages; format: cell-based, human
Procedure: For evaluation of Mac-CD4 T cell surface marker modulation, M2 macrophages were co-cultured with T cells as described above and cells were harvested on day 8, day 9 and day 10 to perform surface receptor staining on both M2 macrophages and T cells.
Changes in surface marker expression on both macrophages and CD3 & CD28-stimulated T cells were also measured. Vehicle- and β-glucan-treated M2 macrophages and CD T cells from the co-cultures were evaluated by flow cytometry for the modulation of co-stimulatory or co-inhibitory molecules. FIG. 8C and Table 9 are representative results from 2 different experiments.

monocytes = assay: β-glucan binding to monocytes in whole blood, serum cross-over; format: cell-based, human
Procedure: To test this, M2 macrophages were prepared as described above with a few modifications. The whole blood of a low binder was spun down to remove the plasma and then the cells were reconstituted with serum obtained from a high binder. The reconstituted blood was treated with vehicle or β-glucan (25 μg/mL) for 2 hours at 37° C. The monocytes were evaluated for binding by using anti-β-glucan specific monoclonal antibody and subsequent flow cytometry.

M1 macrophages = assay: Flow cytometry of M1/M2-specific markers on M1 macrophages derived from vehicle- or β-glucan-treated whole blood; format: cell-based, human
Procedure: (§1) CD14^+ monocytes from human whole blood were enriched using Ficoll gradient and magnetic bead separation. Enriched monocytes (5×10^5 cells per mL) were then cultured in either M1-polarizing (XVivo 10 media (Lonza Group) supplemented with 5% autologous serum and 100 ng/mL recombinant human granulocyte macrophage colony-stimulating factor (rhGM-CSF) (R&D Systems) or M2-polarizing (XVivo 10 media supplemented with 10% autologous serum and 50 ng/mL recombinant human macrophage colony-stimulating factor (rhM-CSF) (R&D Systems) conditions for 6 days. In experiments performed to evaluate the effect of β-glucan, whole blood was first incubated with vehicle (sodium citrate buffer) or 25 μg/mL soluble β-glucan for 2 hours at 37° C. and then the monocytes were isolated and differentiated. Morphology was checked before macrophages were harvested for phenotypic analysis. Culture medium of the day 6 macrophage culture (MCM) was collected, spun down to remove contaminated cell pellet and then frozen down for subsequent cytokine analysis by ELISA or used to setup a co-culture with CD3 & CD28-stimulated CD4 T cells (MCM-CD4 T) for evaluation of either surface markers or CD4 T cell proliferation. The macrophages were used to setup a co-culture with CD3 & CD28- or CD3 only-stimulated CD4 T cells (Mac-CD4 T) on day 6 for evaluation of either surface marker modulation or effect on CD4 T cell proliferation. For Mac-CD4 T cell proliferation study, M1 or M2 macrophages were cultured with CD3 & CD28- or CD3 only-stimulated, CFSE-labeled, autologous CD4 T cells at a 1:10 ratio. T cell proliferation was measured at the end of the experiment (day 9-day 11) by flow cytometry, and results are graphically shown as CFSE-dilution peaks. The assessment of CD3-only stimulated T cells was always done on day 11. Quantitative results were reported as the Division Index (the average number of cell divisions a population underwent) calculated for each of the triplicate wells in each of the culture conditions. Culture supernatants of Mac-CD4 T co-cultures were collected for subsequent cytokine analysis.
M1 and M2 macrophages from vehicle- or β-glucan-treated whole blood were prepared as described above. […] In addition, surface expression of CD86 was enhanced as well as both protein and mRNA levels of PD-L1 (FIG. 2B).
Expression of a panel of markers was evaluated by flow cytometry for vehicle- and β-glucan-treated, high binder-derived M1 and M2 macrophages (CD163 was evaluated twice).
CD163 and CD86 were evaluated by flow cytometry for vehicle- and β-glucan-treated, low binder-derived M1 and M2 macrophages.

[1] = system: tumor cell lines, including NSCLC, breast, pancreatic, colon, and B cell lymphoma; assay: PD-L1 expression on tumor cell lines incubated with supernatant of M2 macrophage/MoDC and T cell co-culture; format: cell-based; settings: supernatants of proliferation assays, 48 hours
Procedure: M2 macrophages and MoDC were prepared as described above. The macrophages and the MoDC were subsequently used in T cell proliferation assays as described previously. The supernatants from these proliferation assays were harvested and incubated with various tumor cell lines, including NSCLC, breast, pancreatic, colon, and B cell lymphoma. The expression of PD-L1 on these tumor cell lines were evaluated post 48 hours by flow cytometry. Shown in FIG. 15 are representative results from 3 different experiments.

IFN-γ = IFN-γ ELISA of co-culture supernatants; format: cell-based, human
Procedure: as §1
The culture supernatants from the CFSE dilution T-cell proliferation assay (FIG. 2B) were also measured for IFN-gamma levels by ELISA. […] Thus, β-glucan affects M2 to M1 repolarization and drives anti-tumorigenic Th1 polarization.
Modulation of IFN-γ and IL-4 production of vehicle- and β-glucan-treated M2 macrophages was then evaluated. […] Thus, M2 macrophages derived from β-glucan-treated monocytes are M1-like in high binder subjects.
M2 macrophages from 4 high binders and 4 low binders were prepared and evaluated for their ability to modulate CD4 T cell proliferation. The supernatants from the various CD4 T cell proliferation conditions were measured for IFN-γ by ELISA. Results shown in FIG. 10 are representative from 4 different experiments. Fold change over the IFN-γ levels produced in the co-cultures of vehicle-treated M2 macrophages and CD4 T cells are plotted for each of the 4 donors.

[2] = relative to vehicle-treated M2 macrophages, co-culture
[3] = M1 macrophages, high binder, 25 μg/mL

β(1,6)-[poly-(1,3)-D-glucopyranosyl]-poly-β(1,3)-D-glucopyranose [β-glucan]
Change in MFI on Macrophages: 4-1BBL (M2 macrophages; [2]): No change
Change in MFI on Macrophages: CD40 (M2 macrophages; [2]): No change
Change in MFI on Macrophages: CD80 (M2 macrophages; [2]): No change
Change in MFI on Macrophages: CD172 (M2 macrophages; [2]): No change
Change in MFI on Macrophages: CD209 (M2 macrophages; [2]): No change
Change in MFI on Macrophages: OX40 (M2 macrophages; [2]): No change
Change in MFI on Macrophages: CD86 (M2 macrophages; relative to vehicle-treated M2 macrophages, co-culture (day 8)): Increase
Change in MFI on Macrophages: PD-L1 (CD274) (M2 macrophages; relative to vehicle-treated M2 macrophages, co-culture (day 9)): Increase
Change in MFI on Macrophages: HLA-DR (M2 macrophages; β-glucan-treated M2 macrophages relative to vehicle-treated, co-culture with CD3 & CD28-stimulated T cells): No change
binding of β-glucan to monocytes (monocytes; low binder's whole blood with high binder's serum containing higher levels of ABA): significantly higher binding
binding of β-glucan to monocytes (monocytes; whole blood of a low binder): did not bind
CD86 median MFI (M1 macrophages; [3]): 2113
CD163 (1) median MFI (M1 macrophages; [3]): 158
CD163 (2) median MFI (M1 macrophages; [3]): 230
CD206 median MFI (M1 macrophages; [3]): 816
CD209 median MFI (M1 macrophages; [3]): 318
CD274 (PD-L1) median MFI (M1 macrophages; [3]): 5563
HLA-DR median MFI (M1 macrophages; M1 macrophages, high binder, whole blood treated with 25 μg/mL soluble β-glucan 2 hours): 667
CD86 median MFI (M1 macrophages; M1 macrophages, low binder): 3179
CD163 median MFI (M1 macrophages; M1 macrophages, low binder): 132
M1 macrophage phenotype (panel of M1/M2-specific markers) (M1 macrophages; β-glucan pretreatment of whole blood): did not affect M1 macrophage phenotype
PD-L1 expression on the tumor cell lines [1]: enhances PD-L1 expression
IFN-gamma levels in culture supernatants (IFN-γ; M2 macrophage-CD4 T co-culture, FIG. 2D): concomitant increase in IFN-gamma production
IFN-γ production (IFN-γ; co-cultures of β-glucan-treated M2 macrophages and CD4 T cells, high binders): significantly increased production
IFN-γ production (IFN-γ; co-cultures under immunosuppressive conditions (TCM, IL-4), FIG. 4): significantly increased production
IFN-γ production (IFN-γ; co-cultures without exogenous CD28 antibody, FIG. 8B): significantly increased production
IFN-γ production (IFN-γ; low binder crossed-over with high binder's serum, FIG. 11B): significantly increased production
IFN-γ production (IFN-γ; β-glucan-treated M2 macrophages, low binders): nor increased IFN-γ production
